Assay results published in patent US9873702B2, “Heterocyclic compounds as biogenic amine transport modulators” (Southern Research Institute, priority 2014, dated 2018).

Assays:
[1] = target: dopamine transporter (DAT) (Rattus norvegicus, UniProt P23977); assay: Dopamine reuptake ([^3H]dopamine uptake) inhibition in rat brain synaptosomes; settings: for IC50: DA Uptake EC50 (nM ± SD), rat caudate synaptosomes, 5 nM [^3H]dopamine, 15 min, 25° C., three experiments pooled; for Emax: read-out: DA Uptake Emax (% I ± SD)
Sequence of dopamine transporter (DAT) (P23977 whole entry): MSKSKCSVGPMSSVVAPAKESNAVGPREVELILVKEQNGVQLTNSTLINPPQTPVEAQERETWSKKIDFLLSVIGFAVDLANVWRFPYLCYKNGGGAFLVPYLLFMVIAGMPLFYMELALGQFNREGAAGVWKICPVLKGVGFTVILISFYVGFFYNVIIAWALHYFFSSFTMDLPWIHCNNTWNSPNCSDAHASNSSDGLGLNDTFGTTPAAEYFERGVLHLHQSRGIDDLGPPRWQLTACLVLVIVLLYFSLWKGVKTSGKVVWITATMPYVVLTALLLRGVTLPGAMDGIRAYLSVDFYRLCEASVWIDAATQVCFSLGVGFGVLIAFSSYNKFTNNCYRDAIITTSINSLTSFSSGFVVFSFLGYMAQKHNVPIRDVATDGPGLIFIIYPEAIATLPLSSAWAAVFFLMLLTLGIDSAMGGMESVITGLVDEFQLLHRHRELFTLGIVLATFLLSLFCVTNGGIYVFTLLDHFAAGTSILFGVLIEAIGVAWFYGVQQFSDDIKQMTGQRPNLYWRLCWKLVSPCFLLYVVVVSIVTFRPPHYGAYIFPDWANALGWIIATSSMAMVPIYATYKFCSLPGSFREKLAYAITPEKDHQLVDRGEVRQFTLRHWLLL

Row | Compound | melting point [°C] | IC50 [1] [nM] | Emax [1] [%]
1 | CCN(CC)C(=O)[C@]1(c2ccccc2)C[C@@H]1CNc1nc(-c2ccc3nccn3c2)nc2ccccc12 [compound 170, (1R,2S)—N,N-Diethyl-2-(((2-(Imidazo[1,2-A]Pyridin-6-yl)Quinazolin-4-yl)Amino)Methyl)-1-Phenylcyclopropanecarboxamide] | 221 to 223 | 78 ± 14 | 72 ± 2
2 | c1cncc(C(CNc2nc(-c3ccc4nccn4c3)nc3ccccc23)c2ccc[nH]2)c1 (centres unmarked) [compound 155, 2-(Imidazo[1,2-A]Pyridin-6-yl)-N-(2-(pyridin-3-yl)-2-(1H-Pyrrol-2-yl)Ethyl)Quinazolin-4-Amine] | 121 to 124 | 175 ± 65 | 77 ± 6
3 | c1ccc(C(CNc2nc(-n3cncn3)nc3ccccc23)c2ccccc2)cc1 [compound 52, N-(2,2-Diphenylethyl)-2-(1H-1,2,4-Triazol-1-yl)Quinazolin-4-Amine] | 216 | 680 | 100
4 | c1ccc(C(CNc2nc(-c3cc4ccccc4[nH]3)nc3ccccc23)c2ccccc2)cc1 [compound 42, N-(2,2-Diphenylethyl)-2-(1H-Indol-2-yl)Quinazolin-4-Amine] | 93 | 200 | < 100
5 | Cc1cc2nccn2cc1-c1nc(NCC(C)c2ccccc2)c2ccccc2n1 (centres unmarked) [compound 184, 2-(7-Methylimidazo[1,2-A]Pyridin-6-yl)-N-(2-Phenylpropyl)Quinazolin-4-Amine] | 208 to 212 | 5.3 ± 2 | 81 ± 4
6 | c1ccc(C(Nc2nc(-c3ccsc3)nc3ccccc23)c2ccccc2)cc1 [compound 11, N-Benzhydryl-2-(thiophen-3-yl)quinazolin-4-amine] | 152 to 155 | 770 | 100
7 | c1ccc(C(CNc2nc(-c3ccc4nccn4c3)nc3ccccc23)N2CCCC2)cc1 (centres unmarked) [compound 121, 2-(Imidazo[1,2-A]Pyridin-6-yl)-N-(2-Phenyl-2-(Pyrrolidin-1-yl)Ethyl)Quinazolin-4-Amine] | 205 to 207 | 170 ± 50 | 83 ± 5
8 | CN(C)c1ccc(-c2nc(NCCC(c3ccccc3)c3ccccc3)c3ccccc3n2)cn1 [compound 93, 2-(6-(Dimethylamino)Pyridin-3-yl)-N-(3,3-Diphenylpropyl)Quinazolin-4-Amine] | 195 | 29 ± 4 | 76 ± 2
9 | c1ccc(C(CNc2nc(-c3cn[nH]c3)nc3ccccc23)c2ccccc2)cc1 [compound 75, N-(2,2-Diphenylethyl)-2-(1H-Pyrazol-4-yl)Quinazolin-4-Amine] | 233 | 62 | 100
10 | COc1cc2nc(-c3cccs3)nc(NCC(c3ccccc3)c3ccccc3)c2cc1OC [compound 26, N-(2,2-Diphenylethyl)-6,7-Dimethoxy-2-(Thiophen-2-yl)Quinazolin-4-Amine] | 94 | 560 | 100
11 | COc1ccc2nc(-c3cnc(N(C)C)nc3)nc(NCC(c3ccccc3)c3ccccc3)c2c1 [compound 60, 2-(2-(Dimethylamino)Pyrimidin-5-yl)-N-(2,2-Diphenylethyl)-6-Methoxyquinazolin-4-Amine] | 198 | 947 ± 402 | 55 ± 6
12 | c1ccc(C(CNc2nc(-c3ccc4[nH]nnc4c3)nc3ccccc23)c2ccccc2)cc1 [compound 63, 2-(1H-Benzo[D][1,2,3]Triazol-5-yl)-N-(2,2-Diphenylethyl)Quinazolin-4-Amine] | 220 | 192 ± 37 | 72 ± 3
13 | c1ccc(C(CNc2nc(-n3cccn3)nc3ccccc23)c2ccccc2)cc1 [compound 51, N-(2,2-Diphenylethyl)-2-(1H-Pyrazol-1-yl)Quinazolin-4-Amine] | 191 | 510 | < 100
14 | c1ccc(C(CNc2nc(-c3ccc4[nH]ccc4c3)nc3ccccc23)c2cccnc2)cc1 (centres unmarked) [compound 130, 2-(1H-Indol-5-yl)-N-(2-Phenyl-2-(Pyridin-3-yl)Ethyl)Quinazolin-4-Amine] | 109 to 111 | 40 ± 5 | 74 ± 2
15 | c1ccc(C(CNc2nc(-c3cccs3)nc3ccccc23)c2ccccc2)cc1 [compound 6, N-(2,2-Diphenylethyl)-2-(thiophen-2-yl)quinazolin-4-amine] | 148 to 152 | 575 ± 51 | 78 ± 1
16 | O=C1Cc2cc(-c3nc(NCC(c4ccccc4)c4ccccc4)c4ccccc4n3)ccc2N1 [compound 78, 5-(4-((2,2-Diphenylethyl)Amino)Quinazolin-2-yl)Indolin-2-One] | 244 | 30 ± 5 | 77 ± 2
17 | COc1ncc(-c2nc(NCC(c3ccccc3)c3ccccc3)c3ccccc3n2)cn1 [compound 29, N-(2,2-Diphenylethyl)-2-(2-Methoxypyrimidin-5-yl)Quinazolin-4-Amine] | 67 | 36 ± 2 | 71 ± 1
18 | c1ccc(CC(Nc2nc(-c3ccc4nccn4c3)nc3ccccc23)c2ccccc2)cc1 (centres unmarked) [compound 165, N-(1,2-Diphenylethyl)-2-(Imidazo[1,2-A]pyridin-6-yl)Quinazolin-4-Amine] | 203 to 204 | 14 ± 2 | 78 ± 2
19 | Cc1cc2nccn2cc1-c1nc(NC(CCc2ccccc2)c2ccccc2)c2ccccc2n1 (centres unmarked) [compound 167, N-(1,3-Diphenylpropyl)-2-(7-Methylimidazo[1,2-A]Pyridin-6-yl)Quinazolin-4-Amine] | 119 to 120 | 9.4 ± 2.3 | 76 ± 3
20 | Nc1ncc(-c2nc(NCC(c3ccccc3)c3ccccc3)c3ccccc3n2)cn1 [compound 44, 2-(2-Aminopyrimidin-5-yl)-N-(2,2-Diphenylethyl)Quinazolin-4-Amine] | 148 | 79 ± 19 | 81 ± 3
21 | CCN(CC)C(=O)[C@]1(c2ccccc2)C[C@@H]1CNc1nc(-c2cn3ccnc3cc2C)nc2ccccc12 [compound 171, (1R,2S)—N,N-Diethyl-2-(((2-(7-Methylimidazo[1,2-A]pyridin-6-yl)Quinazolin-4-yl)Amino)Methyl)-1-Phenylcyclopropanecarboxamide] | 225 to 228 | 16 ± 7 | 73 ± 5
22 | c1ccc(CCC(Nc2nc(-c3ccc4nccn4c3)nc3ccccc23)c2ccccc2)cc1 (centres unmarked) [compound 166, N-(1,3-Diphenylpropyl)-2-(Imidazo[1,2-A]Pyridin-6-yl)Quinazolin-4-Amine] | 190 to 192 | 42 ± 7 | 68 ± 2
23 | Cc1cc2nccn2cc1-c1nc(NC[C@H](c2ccccc2)n2cccc2)c2ccccc2n1 [compound 162, (S)-2-(7-Methylimidazo[1,2-A]Pyridin-6-yl)-N-(2-Phenyl-2-(1H-Pyrrol-1-yl)Ethyl)Quinazolin-4-Amine] | 196 to 198 | 2.2 ± 0.4 | 62 ± 2
24 | c1ccc(C(CNc2nc(-c3ccc4[nH]cnc4c3)nc3ccccc23)c2ccccc2)cc1 [compound 85, 2-(1H-Benzo [D]Imidazol-5-yl)-N-(2,2-Diphenylethyl)Quinazolin-4-Amine] | 142 | > 5000 | –
